In PMC10287566, “Signaling-specific inhibition of the CB1 receptor for cannabis use disorder: phase 1 and phase 2a randomized trials” (Nature Medicine, 2023):
Read-outs that look alike come from different tables or passages of the source.

Key:
rats = test: Respiration in unrestrained conscious rats (GLP)
mice [1] = test: THC-induced increase in psychomotor stimulation (open field); assay type: in vivo
[2] = Plasma pharmacokinetics/toxicokinetics in dogs (oral and i.v.); assay type: in vivo; conditions: both sexes, Beagle, dog; for bioavailability: ratio of AUC per os and i.v.
Protocol: For both conditions, animals were fasted overnight before dosing and up to approximately 2 h afterwards. […] Blood samples were drawn from the cephalic or jugular veins at the following timepoints: before dose and then at 0.125 h (7.5 min), 0.25 h, 0.5 h, 1 h, 2 h, 4 h, 6 h, 8 h, 10 h, 24 h and 48 h after dosing.
Blood samples were immediately cooled on ice. Plasma was prepared by centrifugation for 7 min at 1,600g under refrigeration (4 ± 2 °C), performed within 15 min at maximum after blood sampling. Plasma was divided into two polypropylene tubes containing at least 500 µl and then stored frozen (≤−70 °C) until assay.
For all studies in rats and the 91-d toxicity study in dogs, the timepoints on days 1, 28 and 91 were: before dose and 1, 3, 5, 8 and 24 h after dose. For the 28-d toxicity study in dogs, the timepoints on days 1 and 28 were: before dose and 1, 2, 4, 8, and 24 h after dose. In both species, only mean pre-dose plasma concentrations were calculated on day 14 for the 28-d study and on day 28 for the 91-d study. For the experiments in rats, blood samples for drug analysis were taken from the satellite animals used for the toxicokinetic (TK) analysis (n = 3 per sex per timepoint and per group). For experiments performed in dogs, blood samples were drawn from the cephalic or jugular veins of all animals (n = 3 per sex per group).
TK analysis was performed separately per sex on mean concentrations by a non-compartmental analysis (NCA). The linearity of exposure was evaluated by comparison of the AUC/dose and Cmax/dose ratios. Possible accumulation was evaluated from the ratio of AUC on day 28 and on day 1 for each dose level and each sex. Samples lower than the limit of quantification (LLQ) values (that is, < 8.00 ng ml^−1 in rats and <20.0 ng ml^−1 in dogs) were not included in the calculation of TK parameters.

volunteers with CUD = test: Phase 2a study, safety; assay type: in vivo, human
From the text: Data from the first dose level were reviewed by the Data Safety Monitoring Board before ascending to the next dose level.
On day 6 of each period, before discharge from the research center, participants had sitting blood pressure and pulse rate measurements, clinical laboratory tests (chemistry, hematology and urinalysis) and body weight taken. The study start date was 23 October 2018; primary completion date was 31 July 2020; and actual study completion date was 1 January 2021. After the second study phase, participants were contacted 28 d after discharge so that we could inquire about the occurrence of any serious AEs (including pregnancies) that may have occurred since leaving the research site.

85 receptors = test: Eurofins high-throughput binding screen; conditions: 10 µM
mice [3] = test: THC-induced impairment of long-term memory (object recognition); assay type: in vivo
[4] = Increase in psychomotor stimulation
[5] = iv, 0.7 mg/kg, dogs i.v. 0.7 mg/kg
[6] = po, 0.7 mg/kg, dogs po 0.7 mg/kg single
[7] = po, 2 mg/kg, dogs po 2 mg/kg single, 91-day tox study
[8] = po, 2 mg/kg, dogs po 2 mg/kg theoretical (approx. 0.5 mg/kg received), 28-day tox study
[9] = po, 9 mg/kg, dogs po 9 mg/kg single, 28-day tox study
[10] = po, 20 mg/kg, dogs po 20 mg/kg single, 91-day tox study
[11] = po, 36 mg/kg, dogs po 36 mg/kg single, 28-day tox study
[12] = po, 65 mg/kg, dogs po 65 mg/kg single, 91-day tox study

SMILES: COc1ccc(CO[C@H]2CC[C@@]3(C)C(=CC[C@H]4[C@@H]5CC[C@H](C(C)=O)[C@@]5(C)CC[C@@H]43)C2)cc1 [AEF0117, 3β-(4-methoxybenzyloxy)pregn-5-en-20-one]
- adverse effects on respiration (rats): did not show any adverse effects
- THC-increased psychomotor stimulation (mice [1]): inhibited
- % Inhibition (mice [1]; [4]): 100%
- ID50 (mice [1]; [4]): 0.36 µg/kg
- ID100 (mice [1]; [4]): 1.5 µg/kg
- Tmax ([2]; dogs po 0.7 mg/kg single): 2.67 h
- Tmax ([2]; dogs po 2 mg/kg theoretical (approx. 0.5 mg/kg received), 28-day tox study): 4 h
- Tmax ([2]; dogs po 9 mg/kg single, 28-day tox study): 6 h
- Tmax ([2]; dogs po 20 mg/kg single, 91-day tox study): 4 h
- Tmax ([2]; dogs po 36 mg/kg single, 28-day tox study): 4 h
- Tmax ([2]; dogs po 65 mg/kg single, 91-day tox study): 4 h
- half-life ([2]; dogs, read-out: terminal half-life (converted)): 35.9 h
- AUC(0-t) [2, 5]: 2.19 µg·h/mL
- Cmax [2, 5]: 0.505 µg/mL
- half-life ([2]; iv, 0.7 mg/kg, dogs i.v. 0.7 mg/kg, manual linear regression of last three points, read-out: t½ (converted)): 35.9 h
- half-life ([2]; iv, 0.7 mg/kg, dogs iv, read-out: half-life): 33.5 to 38.2 h
- Tmax ([2]; iv, dogs i.v. 0.7 mg/kg): 0.125 h
- bioavailability ([2]; oral, 0.7 mg kg^−1, dogs): ~68%
- AUC(0-t) [2, 6]: 1.45 µg·h/mL
- Cmax [2, 6]: 0.138 µg/mL
- half-life ([2]; po, 0.7 mg/kg, dogs po 0.7 mg/kg, manual linear regression of last three points, read-out: t½ (converted)): 28 h
- bioavailability ([2]; po, 0.7 mg/kg, dogs): 68%
- AUC(0-t) [2, 7]: 2.91 µg·h/mL
- Cmax [2, 7]: 0.241 µg/mL
- AUC(0-t) [2, 8]: 1.02 µg·h/mL
- Cmax [2, 8]: 0.095 µg/mL
- AUC(0-t) [2, 9]: 18.5 µg·h/mL
- Cmax [2, 9]: 1.2 µg/mL
- AUC(0-t) [2, 10]: 26.5 µg·h/mL
- Cmax [2, 10]: 2.53 µg/mL
- AUC(0-t) [2, 11]: 50.3 µg·h/mL
- Cmax [2, 11]: 3.48 µg/mL
- AUC(0-t) [2, 12]: 43.5 µg·h/mL
- Cmax [2, 12]: 3.3 µg/mL
- half-life ([2]; po, dogs per os, read-out: half-life): 24.4 to 31.6 h
- Number of TEAEs (volunteers with CUD; 0.06 mg/d 5 d): 9 E
- Number of participants with a TEAE leading to discontinuation (volunteers with CUD; 0.06 mg/d 5 d): 0 n (%)
- Number of participants with an SAE (volunteers with CUD; 0.06 mg/d 5 d): 0 n (%)
- Number of participants with at least one TEAE (volunteers with CUD; 0.06 mg/d 5 d): 6 (42.9) n (%)
- Participants with TEAE: Mild (volunteers with CUD; 0.06 mg/d 5 d): 6 (42.9) n (%)
- Participants with TEAE: Moderate (volunteers with CUD; 0.06 mg/d 5 d): 0 n (%)
- Participants with TEAE: Not related (volunteers with CUD; 0.06 mg/d 5 d): 2 (14.3) n (%)
- Participants with TEAE: Related (volunteers with CUD; 0.06 mg/d 5 d): 6 (42.9) n (%)
- Participants with TEAE: Severe (volunteers with CUD; 0.06 mg/d 5 d): 0 n (%)
- TEAEs by SOC: Cardiac disorders (volunteers with CUD; 0.06 mg/d 5 d): 1 (7.1) n (%)
- TEAEs by SOC: Ear and labyrinth disorders (volunteers with CUD; 0.06 mg/d 5 d): 0 n (%)
- TEAEs by SOC: Gastrointestinal disorders (volunteers with CUD; 0.06 mg/d 5 d): 0 n (%)
- TEAEs by SOC: General disorders and administration site conditions (volunteers with CUD; 0.06 mg/d 5 d): 1 (7.1) n (%)
- TEAEs by SOC: Infections and infestations (volunteers with CUD; 0.06 mg/d 5 d): 0 n (%)
- TEAEs by SOC: Injury, poisoning and procedural complications (volunteers with CUD; 0.06 mg/d 5 d): 0 n (%)
- TEAEs by SOC: Investigations (volunteers with CUD; 0.06 mg/d 5 d): 3 (21.4) n (%)
- TEAEs by SOC: Musculoskeletal and connective tissue disorders (volunteers with CUD; 0.06 mg/d 5 d): 0 n (%)
- TEAEs by SOC: Nervous system disorders (volunteers with CUD; 0.06 mg/d 5 d): 3 (21.4) n (%)
- TEAEs by SOC: Psychiatric disorders (volunteers with CUD; 0.06 mg/d 5 d): 0 n (%)
- TEAEs by SOC: Renal and urinary disorders (volunteers with CUD; 0.06 mg/d 5 d): 0 n (%)
- TEAEs by SOC: Respiratory, thoracic and mediastinal disorders (volunteers with CUD; 0.06 mg/d 5 d): 1 (7.1) n (%)
- TEAEs by SOC: Skin and subcutaneous tissue disorders (volunteers with CUD; 0.06 mg/d 5 d): 0 n (%)
- Number of TEAEs (volunteers with CUD; 1 mg/d 5 d): 24 E
- Number of participants with a TEAE leading to discontinuation (volunteers with CUD; 1 mg/d 5 d): 1 (6.7) n (%)
- Number of participants with an SAE (volunteers with CUD; 1 mg/d 5 d): 0 n (%)
- Number of participants with at least one TEAE (volunteers with CUD; 1 mg/d 5 d): 8 (53.3) n (%)
- Participants with TEAE: Mild (volunteers with CUD; 1 mg/d 5 d): 8 (53.3) n (%)
- Participants with TEAE: Moderate (volunteers with CUD; 1 mg/d 5 d): 1 (6.7) n (%)
- Participants with TEAE: Not related (volunteers with CUD; 1 mg/d 5 d): 1 (6.7) n (%)
- Participants with TEAE: Related (volunteers with CUD; 1 mg/d 5 d): 8 (53.3) n (%)
- Participants with TEAE: Severe (volunteers with CUD; 1 mg/d 5 d): 1 (6.7) n (%)
- TEAEs by SOC: Cardiac disorders (volunteers with CUD; 1 mg/d 5 d): 0 n (%)
- TEAEs by SOC: Ear and labyrinth disorders (volunteers with CUD; 1 mg/d 5 d): 0 n (%)
- TEAEs by SOC: Gastrointestinal disorders (volunteers with CUD; 1 mg/d 5 d): 4 (26.7) n (%)
- TEAEs by SOC: General disorders and administration site conditions (volunteers with CUD; 1 mg/d 5 d): 0 n (%)
- TEAEs by SOC: Infections and infestations (volunteers with CUD; 1 mg/d 5 d): 0 n (%)
- TEAEs by SOC: Injury, poisoning and procedural complications (volunteers with CUD; 1 mg/d 5 d): 2 (13.3) n (%)
- TEAEs by SOC: Investigations (volunteers with CUD; 1 mg/d 5 d): 2 (13.3) n (%)
- TEAEs by SOC: Musculoskeletal and connective tissue disorders (volunteers with CUD; 1 mg/d 5 d): 2 (13.3) n (%)
- TEAEs by SOC: Nervous system disorders (volunteers with CUD; 1 mg/d 5 d): 3 (20.0) n (%)
- TEAEs by SOC: Psychiatric disorders (volunteers with CUD; 1 mg/d 5 d): 2 (13.3) n (%)
- TEAEs by SOC: Renal and urinary disorders (volunteers with CUD; 1 mg/d 5 d): 0 n (%)
- TEAEs by SOC: Respiratory, thoracic and mediastinal disorders (volunteers with CUD; 1 mg/d 5 d): 0 n (%)
- TEAEs by SOC: Skin and subcutaneous tissue disorders (volunteers with CUD; 1 mg/d 5 d): 1 (6.7) n (%)
- binding activity at 85 receptors (85 receptors): did not modify binding to any receptor
- THC's effects on long-term object recognition memory (mice [3]): inhibited
- % Inhibition (mice [3]; Impairment of long-term memory): 100%
- ID100 (mice [3]; Impairment of long-term memory): ≤ 5 µg/kg
